Data reported in patent US12398121B2 (Nuvation Bio Inc., priority 2018, dated 2025).
pIC50, pKi: −log10 of the molar value.

Legend:
AR in LNCaP cytosol = biological target: T1, AR in LNCaP cytosol (Homo sapiens, UniProt P10275, T878A); assay: AR binding assay (3H-methyltrienolone displacement)
T1 construct: endogenous in cells; host or cells: LNCaP cytosol
T1 sequence (P10275 1-920 T878A): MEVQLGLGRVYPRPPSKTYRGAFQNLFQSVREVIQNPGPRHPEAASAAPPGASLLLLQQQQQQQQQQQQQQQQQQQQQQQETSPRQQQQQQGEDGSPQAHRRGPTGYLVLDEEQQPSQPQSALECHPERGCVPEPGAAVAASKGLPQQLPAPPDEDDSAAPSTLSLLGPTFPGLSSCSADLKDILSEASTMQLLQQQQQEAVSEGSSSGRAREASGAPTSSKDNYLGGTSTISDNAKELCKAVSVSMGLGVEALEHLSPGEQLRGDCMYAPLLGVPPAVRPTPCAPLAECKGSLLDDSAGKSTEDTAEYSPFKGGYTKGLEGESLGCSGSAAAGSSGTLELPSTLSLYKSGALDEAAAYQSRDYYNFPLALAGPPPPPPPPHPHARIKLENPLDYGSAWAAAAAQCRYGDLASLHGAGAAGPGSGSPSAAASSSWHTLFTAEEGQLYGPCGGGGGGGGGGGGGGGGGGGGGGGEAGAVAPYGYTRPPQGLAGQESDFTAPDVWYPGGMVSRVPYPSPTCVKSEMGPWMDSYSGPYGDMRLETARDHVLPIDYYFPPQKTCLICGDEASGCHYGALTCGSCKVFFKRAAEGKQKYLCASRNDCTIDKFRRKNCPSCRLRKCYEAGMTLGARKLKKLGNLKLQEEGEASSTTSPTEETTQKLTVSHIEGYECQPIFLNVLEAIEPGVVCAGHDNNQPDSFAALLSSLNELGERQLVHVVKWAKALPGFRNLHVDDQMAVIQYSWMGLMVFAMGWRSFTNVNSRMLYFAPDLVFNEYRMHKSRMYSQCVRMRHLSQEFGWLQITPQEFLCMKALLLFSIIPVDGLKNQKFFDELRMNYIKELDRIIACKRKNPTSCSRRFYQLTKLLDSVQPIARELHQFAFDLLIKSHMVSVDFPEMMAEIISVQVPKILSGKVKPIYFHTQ
Method: The following methods are for evaluating the in vitro biology properties of the test articles. • a. RBC HotSpot Poly(ADP-ribose) Polymerases 1 (PARP1) and Poly(ADP-ribose) Polymerases 2 (PARP2) Assays: The assay principle is radioisotope-based filter binding assay where incorporation of radioisotope-labeled NAD^+ into the substrate captured on filter is detected after washout free NAD^+. Data were analyzed using Excel and GraphPad Prism software for IC50 curve fits. Each assay was conducted with PJ34 as a positive control. • i. PARP1 assay: Human recombinant PARP1 at a final concentration of 2.5 nM was combined with histone H4 (20 μM) and test articles at various concentrations in reaction buffer (50 mM Tris-HCL, pH 8.0, 50 mM NaCl, 10 mM MgCl2, 1 mM DTT, 1% DMSO, and 20 μg/mL activated DNA). The solution was inoculated for 20 min at room temperature and the reaction initiated by adding [adenylate-^32P]-Nicotinamide Adenine Dinucleotide, ^32P-NAD^+ at a final concentration of 10 μM. After incubation for 2 hour at room temperature, the reaction mixture was filtered and washed with 0.75% phosphoric acid for radioactivity detection. • ii. PARP2 assay: Human recombinant PARP2 at a final concentration of 2.5 nM was combined with histone H3 (20 μM) and test articles at various concentrations in reaction buffer (50 mM Tris-HCL, pH 8.0, 50 mM NaCl, 10 mM MgCl2, 1 mM DTT, 1% DMSO, and 20 μg/mL activated DNA). The solution was inoculated for 20 min at room temperature and the reaction was initiated by adding [adenylate-^32P]-Nicotinamide Adenine Dinucleotide, ^32P-NAD^+ at a final concentration of 10 μM. After incubation for 2 hour at room temperature, the reaction mixture was filtered and washed with 0.75% phosphoric acid for radioactivity detection. • b. AR binding assay: AR in LNCaP cytosol was used for determining the binding affinity of test articles and the reference compound—progesterone (Sigma, Cat: E2785, St. Louis, MO). IC50s were determined using 8 concentrations/compound. Cytosol was plated at 200 μg/well (100 μL) into a 96-well conical polypropylene plate (Agilent, Cat: 5042-1385, Santa Clara, CA) and mixed with 3 μL of test compound. After adding 100 μL of ^3H-methyltrienolone (PerkinElmer, Cat: NET590250UC, San Jose, CA), the plate was sealed and shaken at 300 rpm at 4° C. for 24 hours. Post incubation, 100 μL of radioligand adsorption buffer containing 10 mM Tris-HCl, pH 7.4; 1.5 mM EDTA; 1 mM DTT; 0.25% charcoal; 0.0025% dextran was added to individual well. Plate was shaken for 15 min at 4′C followed by centrifugation at 3000 rpm for 30 min at 4° C. 150 μL of supernatant was transferred into scint-tube (PerkinElmer, Cat: 6000192) and mixed with 2 mL of Ultima Gold Cocktail (PerkinElmer, Cat: 6013329). Radioactivity was counted using a TriCarb 2910 TR scintillation counter (PerkinElmer). Inhibition of the radioactivity by test articles were calculated using the equation below: % Inhibition=(1−(Assay well−Average_LC)/(Average_HC−Average_LC))×100%.
IC50 values were calculated and graphed using the model “log(inhibitor) vs. response—Variable slope” included in GraphPad Prism 5 (San Diego, CA). The Ki values were further calculated using the equation below where [L] was the radioligand concentration (1 nM) using in this study. Kd value was 0.332 nM. Ki=IC50/(1+[L]/Kd) c. AR transactivation: Human AR cloned into a CMV vector backbone was used for the transactivation study. HEK-293 cells were plated at 80,000 cells per well of a 24 well plate in DME+5% csFBS. Twenty four hours later, the cells were transfected using Lipofectamine (Invitrogen, Carlsbad, CA) with 0.25 μg GRE-LUC, 0.01 μg CMV-LUC (renilla luciferase) and 25 ng of the AR in OPTIMEM medium. The cells were treated 24 hrs after transfection with various ligands (10^−12 to 10^−5 M final concentrations) and luciferase assay were performed 48 hours after transfection. […]

DNA-PK = biological target: T2, DNA-PK (Homo sapiens, UniProt P78527); assay: DNA-PK inhibition (Reaction Biology HotSpot Kinase Assay, radioisotope filter binding); assay type: biochemical; conditions: 5 nM DNA-PK, 20 μM DNA-PKtide, 33P-ATP
T2 construct: purchased Invitrogen, Carlsbad, CA PR9107A

| SMILES | pKi (AR in LNCaP cytosol) | pIC50 (DNA-PK) |
| --- | --- | --- |
| CCN1C(=O)CNc2ncc(-c3ccc(-c4ncn(CCCCCCNC(=O)c5ccc(N6C(=S)N(c7ccc(C#N)c(C(F)(F)F)c7)C(=O)C6(C)C)cc5F)n4)nc3C)nc21 [Compound 3.1, 4-(3-(4-cyano-3-(trifluoromethyl)phenyl)-5,5-dimethyl-4-oxo-2-thioxoimidazolidin-1-yl)-N-(6-(3-(5-(8-ethyl-7-oxo-5,6,7,8-tetrahydropyrazino[2,3-b]pyrazin-2-yl)-6-methylpyridin-2-yl)-1H-1,2,4-triazol-1-yl)hexyl)-2-fluorobenzamide] | 7.68 | < 5.00 |
| CCN1C(=O)CN(CCCCCCNC(=O)c2ccc(N3C(=S)N(c4ccc(C#N)c(C(F)(F)F)c4)C(=O)C3(C)C)cc2F)c2ncc(-c3ccc(-c4nc[nH]n4)nc3C)nc21 [Compound 3.2, 4-(3-(4-cyano-3-(trifluoromethyl)phenyl)-5,5-dimethyl-4-oxo-2-thioxoimidazolidin-1-yl)-N-(6-(4-ethyl-6-(2-methyl-6-(1H-1,2,4-triazol-3-yl)pyridin-3-yl)-3-oxo-3,4-dihydropyrazino[2,3-b]pyrazin-1(2H)-yl)hexyl)-2-fluorobenzamide] | 7.72 | < 5.00 |
